For 17 compounds, logP results are on record in the OPERA property sets (Mansouri et al. 2018).

Each structure is given as a SMILES string.

By logP is commonly meant a log measure of how a compound divides between an organic and an aqueous phase.

Turning to `c1ccc2c(c1)OCCOCCOCCOCCOCCOCCOCCOCCOCCOCCO2`, the lipophilicity (logP) was -0.09.

Regarding `COCCOCCOc1cccc(OCCOCCOC)c1`, the logP is 0.86.

In turn, `c1ccc2c(c1)OCCOCCOCCOc1ccccc1OCCOCCOCCO2` yielded a logP of 2.11.

The compound `c1ccc2c(c1)OCCOCCOCCOCCOCCOCCOCCO2` registered a log partition coefficient (logP) of 0.45.

`c1ccc2c(c1)OCCOCCOCCOCCOc1ccccc1OCCOCCOCCOCCO2`: the logP was determined as 1.8.

For the compound `c1ccc2c(c1)OCCOCCOCCOCCOCCOCCOCCOc1ccccc1OCCOCCOCCOCCOCCOCCOCCO2`, the logP was found to be 0.52.

`c1ccc2c(c1)OCCOCCOc1ccccc1OCCOCCO2` came in with a logP of 2.2.

Take `c1ccc2c(c1)OCCOCCOCCOCCOCCOCCOCCOCCOCCO2`: the logP was found to be 0.03.

In the case of `COCCOCCOc1ccccc1OCCOCCOC`, the logP came out at 0.76.

The compound `c1ccc2c(c1)OCCOCCOCCOCCO2` registered a logP of 0.91.

In the case of `c1ccc2c(c1)OCCOCCOCCOCCOCCO2`, the logP came to 0.58.

As to `COCCOCCOc1ccc(OCCOCCOC)cc1`, the logP was 0.76.

With `c1ccc2c(c1)OCCOCCOCCOCCOCCOCCOc1ccccc1OCCOCCOCCO2`, the logP amounted to 1.45.

Compound `COCCOCCOCCOc1ccccc1OCCOCCOCCOC` came in with a logP of 0.38.

On to `c1ccc2c(c1)OCCOCCOCCOCCOCCOCCOc1ccccc1OCCO2`, for which the logP worked out at 1.63.

`c1ccc2c(c1)OCCOCCOCCOCCOCCOCCO2` came in with a lipophilicity (logP) of 0.57.

Regarding `c1ccc2c(c1)OCCOCCOCCOCCOCCOCCOCCOc1ccccc1OCCO2`, the logP was 1.82.
